In PubChem BioAssay (NCI):
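In this assay, cells in 96-well plates receive the compound at five concentrations for 48 hours. Endpoints are linearly interpolated between the surrounding concentrations. At the TGI there is no net growth.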

Assays:
Test in all cases: NCI-60 cell line screen, 48 h
KM12 colon = tested on: KM12 colon
SF-295 CNS = tested on: SF-295 CNS
MDA-MB-435 = tested on: MDA-MB-435
NCI-H522 lung = tested on: NCI-H522 lung
SR leukemia = tested on: SR leukemia
SK-MEL-28 melanoma = tested on: SK-MEL-28 melanoma
SK-OV-3 ovarian = tested on: SK-OV-3 ovarian
MDA-N = tested on: MDA-N
UACC-62 melanoma = tested on: UACC-62 melanoma
ACHN renal = tested on: ACHN renal
OVCAR-8 ovarian = tested on: OVCAR-8 ovarian
M14 melanoma = tested on: M14 melanoma
MCF7 breast = tested on: MCF7 breast
CCRF-CEM leukemia = tested on: CCRF-CEM leukemia
NCI/ADR-RES ovarian = tested on: NCI/ADR-RES ovarian
MOLT-4 leukemia = tested on: MOLT-4 leukemia
SK-MEL-5 melanoma = tested on: SK-MEL-5 melanoma
T-47D breast = tested on: T-47D breast
DU-145 prostate = tested on: DU-145 prostate
RPMI-8226 leukemia = tested on: RPMI-8226 leukemia

CCOP(=O)(OCC)/C(C#N)=C/c1cn(C)cn1
TGI (KM12 colon): > 100 µM
TGI (SF-295 CNS): > 100 µM
TGI (MDA-MB-435): > 100 µM
TGI (NCI-H522 lung): > 100 µM
TGI (SR leukemia): > 100 µM
TGI (SK-MEL-28 melanoma): > 100 µM
TGI (SK-OV-3 ovarian): > 100 µM
TGI (MDA-N): > 100 µM
TGI (UACC-62 melanoma): > 100 µM
TGI (ACHN renal): > 100 µM
TGI (OVCAR-8 ovarian): > 100 µM
TGI (M14 melanoma): > 100 µM
TGI (MCF7 breast): > 100 µM
TGI (CCRF-CEM leukemia): > 100 µM
TGI (NCI/ADR-RES ovarian): > 100 µM

Cc1ccc(N=N/C(=N\NC(=O)c2ccc(C)cc2)c2ccc(N(CCC#N)CCC#N)cc2C)cc1
TGI (KM12 colon): 30.3 µM
TGI (MOLT-4 leukemia): > 100 µM
TGI (SF-295 CNS): > 100 µM
TGI (MDA-MB-435): 65.8 µM
TGI (SK-MEL-5 melanoma): > 100 µM
TGI (SR leukemia): > 100 µM
TGI (SK-MEL-28 melanoma): 52.5 µM
TGI (SK-OV-3 ovarian): > 100 µM
TGI (MDA-N): > 100 µM
TGI (UACC-62 melanoma): 56.7 µM
TGI (ACHN renal): > 100 µM
TGI (OVCAR-8 ovarian): > 100 µM
TGI (M14 melanoma): 91.8 µM
TGI (MCF7 breast): > 100 µM
TGI (T-47D breast): > 100 µM
TGI (CCRF-CEM leukemia): > 100 µM
TGI (DU-145 prostate): > 100 µM
TGI (RPMI-8226 leukemia): > 100 µM
TGI (NCI/ADR-RES ovarian): > 100 µM

CC1=Nc2nc(Cl)cn2C(=O)C1(Cl)Cl
TGI (KM12 colon): > 10 µM
TGI (MOLT-4 leukemia): > 10 µM
TGI (SF-295 CNS): > 10 µM
TGI (MDA-MB-435): > 10 µM
TGI (NCI-H522 lung): > 10 µM
TGI (SK-MEL-5 melanoma): > 10 µM
TGI (SR leukemia): > 10 µM
TGI (SK-MEL-28 melanoma): > 10 µM
TGI (SK-OV-3 ovarian): > 10 µM
TGI (MDA-N): > 10 µM
TGI (UACC-62 melanoma): > 10 µM
TGI (ACHN renal): > 10 µM
TGI (OVCAR-8 ovarian): > 10 µM
TGI (M14 melanoma): > 10 µM
TGI (MCF7 breast): > 10 µM
TGI (T-47D breast): > 10 µM
TGI (CCRF-CEM leukemia): > 10 µM
TGI (DU-145 prostate): > 10 µM
TGI (RPMI-8226 leukemia): > 10 µM
TGI (NCI/ADR-RES ovarian): > 10 µM

C[Si](C)(OCCS(=O)(=O)O)C1(Cc2cccc3ccccc23)S(=O)(=O)OCCOS1(=O)=O
TGI (KM12 colon): 29.5 µM
TGI (MOLT-4 leukemia): > 100 µM
TGI (SF-295 CNS): 69.9 µM
TGI (MDA-MB-435): 43 µM
TGI (NCI-H522 lung): 30.5 µM
TGI (SK-MEL-5 melanoma): 31.1 µM
TGI (SK-MEL-28 melanoma): 37 µM
TGI (SK-OV-3 ovarian): 35.6 µM
TGI (MDA-N): 41.9 µM
TGI (UACC-62 melanoma): 43 µM
TGI (ACHN renal): 51.9 µM
TGI (OVCAR-8 ovarian): 52.4 µM
TGI (M14 melanoma): 46.1 µM
TGI (MCF7 breast): 39.5 µM
TGI (T-47D breast): 34.6 µM
TGI (CCRF-CEM leukemia): 45.9 µM
TGI (DU-145 prostate): 37.4 µM
TGI (RPMI-8226 leukemia): 57 µM
TGI (NCI/ADR-RES ovarian): > 100 µM
